Assay [1] is described as follows: potency of ADAM10 substrate cleavage blockers – biochemical, QFRET, dose response (AID 743254).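 Further: ADAM10 enzyme with the DM2 quenched FRET peptide as substrate; EDANS fluorescence gain as the protease cuts the substrate; inhibitor potency against ADAM10 proteolytic activity.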
Assay [2] deals with T1, Disintegrin and metalloproteinase domain-containing protein 17 (Homo sapiens, UniProt P78536). Briefly: inhibition of ADAM17 substrate cleavage – biochemical, quenched FRET substrate, counter-screen for ADAM10 exosite inhibitor project, dose response (AID 743253). (In general: The purpose of a counterscreen is to sort out artefacts and off-target activity.)
T1 sequence (P78536 whole entry, the tested form may be a part): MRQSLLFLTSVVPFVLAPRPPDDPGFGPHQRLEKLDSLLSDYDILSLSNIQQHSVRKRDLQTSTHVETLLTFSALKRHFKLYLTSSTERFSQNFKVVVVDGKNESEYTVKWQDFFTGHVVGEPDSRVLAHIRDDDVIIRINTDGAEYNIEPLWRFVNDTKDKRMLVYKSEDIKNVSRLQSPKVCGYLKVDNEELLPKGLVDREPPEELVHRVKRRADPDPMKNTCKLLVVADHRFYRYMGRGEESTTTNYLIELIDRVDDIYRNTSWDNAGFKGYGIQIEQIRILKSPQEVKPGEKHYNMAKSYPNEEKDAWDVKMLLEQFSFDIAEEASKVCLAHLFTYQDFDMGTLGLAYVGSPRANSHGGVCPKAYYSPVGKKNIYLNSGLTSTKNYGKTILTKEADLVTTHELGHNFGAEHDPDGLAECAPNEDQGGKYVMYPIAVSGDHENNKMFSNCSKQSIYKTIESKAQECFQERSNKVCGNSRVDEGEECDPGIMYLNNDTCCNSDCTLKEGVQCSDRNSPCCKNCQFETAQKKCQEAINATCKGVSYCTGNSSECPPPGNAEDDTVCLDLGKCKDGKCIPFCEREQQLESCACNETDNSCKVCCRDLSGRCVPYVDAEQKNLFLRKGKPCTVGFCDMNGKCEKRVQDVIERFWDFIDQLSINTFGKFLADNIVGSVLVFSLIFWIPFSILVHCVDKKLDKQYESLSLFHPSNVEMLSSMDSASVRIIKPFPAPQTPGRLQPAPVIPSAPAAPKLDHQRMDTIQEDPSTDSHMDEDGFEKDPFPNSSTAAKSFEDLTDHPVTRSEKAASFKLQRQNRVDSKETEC
Assay [3] addresses Albumin (Bos taurus, UniProt P02769). Briefly: Counterscreen for inhibitors of T-cell receptor (TCR)-CD3 interaction: Fluorescence-based biochemical high throughput dose response assay to identify inhibitors of T-cell receptor (TCR)-CD3 interaction using a TAMRA-labeled BSA probe. Format: functional.
In assay [4] the target is T2, Sentrin-specific protease 1 (Homo sapiens, UniProt Q9P0U3).
T2 sequence (Q9P0U3 whole entry): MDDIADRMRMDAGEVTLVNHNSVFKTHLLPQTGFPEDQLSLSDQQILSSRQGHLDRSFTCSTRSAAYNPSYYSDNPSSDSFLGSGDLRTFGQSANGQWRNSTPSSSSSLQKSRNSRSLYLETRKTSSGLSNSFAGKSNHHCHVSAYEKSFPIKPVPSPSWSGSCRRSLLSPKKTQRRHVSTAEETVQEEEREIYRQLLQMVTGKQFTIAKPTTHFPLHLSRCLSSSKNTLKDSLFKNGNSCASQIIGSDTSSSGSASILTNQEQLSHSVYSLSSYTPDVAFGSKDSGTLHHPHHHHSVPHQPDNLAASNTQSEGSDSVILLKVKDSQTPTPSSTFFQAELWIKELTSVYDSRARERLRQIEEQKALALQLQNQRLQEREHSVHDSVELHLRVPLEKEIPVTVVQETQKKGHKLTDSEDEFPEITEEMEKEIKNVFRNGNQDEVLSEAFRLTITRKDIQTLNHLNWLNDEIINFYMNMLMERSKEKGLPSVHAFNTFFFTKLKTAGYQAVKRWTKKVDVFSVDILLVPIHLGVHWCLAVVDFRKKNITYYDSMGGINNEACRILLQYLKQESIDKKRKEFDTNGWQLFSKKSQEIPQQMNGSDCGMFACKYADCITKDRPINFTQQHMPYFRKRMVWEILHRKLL
Briefly: SENP1 catalytic domain blockers, concentration series – biochemical, kinetic FRET, dose response (AID 651697). Format: functional. Conditions: read-out: IC50_Mean.

Assay [5] deals with T2, Sentrin-specific protease 1. Briefly: Dose response confirmation of small molecule inhibitors of the catalytic domain of the SUMO protease, SENP1 in a FRET assay. As to conditions: read-out: IC50_Mean. Format: functional.
Assay [6] addresses Fructose-bisphosphate aldolase (Mycobacterium tuberculosis, UniProt P9WQA3). Briefly: Fluorescence-based biochemical high throughput dose response assay for inhibitors of the fructose-bisphosphate aldolase (FBA) of M. tuberculosis. Format: functional.
Assay [7] has as its target T3, Probable nicotinate-nucleotide adenylyltransferase (Staphylococcus aureus (strain N315), UniProt P65502). Format: functional, Staphylococcus aureus subsp. aureus N315. Conditions: read-out: IC50_Mean.
Assay [8] concerns the target T4, Latent membrane protein 1 (Human herpesvirus 4 (strain B95-8), UniProt P03230).
T4 sequence (P03230 whole entry): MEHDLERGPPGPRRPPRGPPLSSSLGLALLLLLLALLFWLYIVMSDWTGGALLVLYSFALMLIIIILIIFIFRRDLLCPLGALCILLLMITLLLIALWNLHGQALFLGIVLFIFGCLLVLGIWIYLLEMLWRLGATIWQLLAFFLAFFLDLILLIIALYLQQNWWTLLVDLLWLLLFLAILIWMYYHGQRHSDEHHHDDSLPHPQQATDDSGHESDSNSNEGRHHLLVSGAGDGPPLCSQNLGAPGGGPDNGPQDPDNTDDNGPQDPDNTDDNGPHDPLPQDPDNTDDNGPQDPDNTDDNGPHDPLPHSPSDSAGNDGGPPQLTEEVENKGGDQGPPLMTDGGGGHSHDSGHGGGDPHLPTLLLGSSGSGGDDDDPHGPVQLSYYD
Briefly: LMP1 TES1 pathway selectivity over dsRED control – imaging, HEK293T, dual-color eGFP/dsRED, cherry-picks, selectivity assay for LMP1 NF-kB inhibitor project, dose response (AID 588398). Format: functional, cell-based.

Assay [9] deals with DNA damage-inducible transcript 3 protein (Mus musculus, UniProt P35639). Format: functional, Cricetulus griseus.
Chain of DNA damage-inducible transcript 3 protein (P35639 whole entry): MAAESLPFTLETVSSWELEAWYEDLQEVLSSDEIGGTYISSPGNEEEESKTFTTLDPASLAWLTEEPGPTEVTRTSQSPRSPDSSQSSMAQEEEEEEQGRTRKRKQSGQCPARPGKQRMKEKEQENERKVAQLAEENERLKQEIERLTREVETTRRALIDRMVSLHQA
Assay [10] addresses T3, Probable nicotinate-nucleotide adenylyltransferase. Format: functional, Staphylococcus aureus subsp. aureus N315.
Assay [11] has as its target T1, Disintegrin and metalloproteinase domain-containing protein 17. Briefly: exosite inhibitors of ADAM17, dose response, biochemical (AID 743260).
A short description of assay [12]: inhibition of ADAM10 peptide cleavage – biochemical, FRET peptide substrate, recombinant human ADAM10, selectivity assay for ADAM17 exosite inhibitor project, dose response (AID 743259).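 Further: ADAM10 enzyme cleaving a FRET peptide substrate.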
Assay [13] addresses T5, Corticotropin-releasing factor receptor 2/Corticotropin-releasing factor-binding protein (Homo sapiens, UniProt P24387+Q13324).
T5 sequence (Q13324 whole entry): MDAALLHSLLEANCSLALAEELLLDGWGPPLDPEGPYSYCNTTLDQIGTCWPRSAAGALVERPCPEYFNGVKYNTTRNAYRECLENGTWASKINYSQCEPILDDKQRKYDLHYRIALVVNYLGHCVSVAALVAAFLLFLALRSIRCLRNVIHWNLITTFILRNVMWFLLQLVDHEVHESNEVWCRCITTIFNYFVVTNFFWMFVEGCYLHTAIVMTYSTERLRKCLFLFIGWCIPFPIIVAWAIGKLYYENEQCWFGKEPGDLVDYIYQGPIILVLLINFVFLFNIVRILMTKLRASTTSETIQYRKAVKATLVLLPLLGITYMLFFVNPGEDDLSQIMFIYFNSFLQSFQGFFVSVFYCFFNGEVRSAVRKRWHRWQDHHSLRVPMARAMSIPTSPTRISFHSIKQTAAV
T5 sequence (P24387 whole entry): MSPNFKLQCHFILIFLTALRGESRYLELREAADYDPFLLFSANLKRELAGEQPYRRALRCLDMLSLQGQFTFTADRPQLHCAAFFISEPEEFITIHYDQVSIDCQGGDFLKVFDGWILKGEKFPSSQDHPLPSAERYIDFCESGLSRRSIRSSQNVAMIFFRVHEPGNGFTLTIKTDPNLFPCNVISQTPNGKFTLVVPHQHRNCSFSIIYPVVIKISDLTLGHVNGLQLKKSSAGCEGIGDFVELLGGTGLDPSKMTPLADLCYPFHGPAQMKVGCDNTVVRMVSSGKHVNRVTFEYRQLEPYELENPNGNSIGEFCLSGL
Briefly: Dose Response confirmation of uHTS hits for small molecule antagonists of the CRF-binding protein and CRF-R2 receptor complex. Format: functional. Conditions: read-out: IC50_Mean.

In assay [14] the test system is HeLa. Briefly: viability loss in HeLa cells – cell-based, ATP luminescence, cherry-pick samples, cytotoxicity control, dose response (AID 687004). It is filed as functional. As to conditions: Homo sapiens.
Assay [15] deals with T5, Corticotropin-releasing factor receptor 2/Corticotropin-releasing factor-binding protein. Briefly: activators of CRF receptor 2 with binding protein – uHTS hits, confirmation (AID 602473). It is filed as functional. Conditions: read-out: EC50_Mean.
Assay [16] can be described thus: blockers of HIV-1 envelope-mediated cell-cell fusion – cherry-pick, dose response (AID 652057). It is filed as functional, cell-based.
Assay [17] in a line: viability loss in CEM21 cells – cell-based, CellTiter-Glo luminescence, cherry-picked, cytotoxicity control for viral fusion inhibitor project, dose response (AID 652042).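 Further: potency for signal decrease meaning cytotoxicity.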 Format: functional.
Assay [18] is described as follows: HIV-1 AD8 envelope cell-cell fusion blockers – cherry-pick, dose response (AID 652062).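 Further: luciferase signal from cell-cell fusion driven by HIV-1 clade B AD8 Env; potency is for inhibitors of fusion seen as a drop in luminescence.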 Format: functional, cell-based.
Assay [19] is described as follows: blockers of HIV-1 ZM109 envelope-driven cell-cell fusion – HeLa effector, CEM target cells, luciferase, cherry-pick, dose response (AID 652058).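 Further: luciferase signal from HIV-1 Env mediated cell-cell fusion of effector and target cells.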 It is filed as functional, cell-based.
Assay [20] in a line: viability loss in HeLa cells – cytotoxicity control for MgcRacGAP inhibitor project, dose response (AID 624300). Format: functional.
A short description of assay [21]: off-target signal loss in HeLa-CEM21 co-culture – HeLa F-luc CTL cells, cherry-picked, counter-screen for HIV-1 Env fusion inhibitor project, dose response (AID 652040).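 Further: potency for signal decrease marking cytotoxic or nonspecific inhibition.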 It is filed as functional, cell-based.

Active and inactive are the calls of the source.

T3 sequence (P65502 whole entry): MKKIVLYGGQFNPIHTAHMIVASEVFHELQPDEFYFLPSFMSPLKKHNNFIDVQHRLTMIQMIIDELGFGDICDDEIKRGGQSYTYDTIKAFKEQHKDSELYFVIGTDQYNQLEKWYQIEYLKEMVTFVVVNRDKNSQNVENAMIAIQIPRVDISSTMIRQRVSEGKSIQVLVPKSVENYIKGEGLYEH
Chain of Fructose-bisphosphate aldolase (P9WQA3 whole entry): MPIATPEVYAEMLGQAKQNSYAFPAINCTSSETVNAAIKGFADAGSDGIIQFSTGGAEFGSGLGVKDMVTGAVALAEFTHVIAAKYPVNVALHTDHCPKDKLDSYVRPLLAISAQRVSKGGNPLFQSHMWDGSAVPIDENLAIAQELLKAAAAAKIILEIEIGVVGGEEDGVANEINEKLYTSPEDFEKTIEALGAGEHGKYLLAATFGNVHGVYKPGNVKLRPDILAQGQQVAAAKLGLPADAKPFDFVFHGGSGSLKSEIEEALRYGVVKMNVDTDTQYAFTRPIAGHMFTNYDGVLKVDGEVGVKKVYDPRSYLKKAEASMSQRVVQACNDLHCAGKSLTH
Chain of Albumin (P02769 whole entry): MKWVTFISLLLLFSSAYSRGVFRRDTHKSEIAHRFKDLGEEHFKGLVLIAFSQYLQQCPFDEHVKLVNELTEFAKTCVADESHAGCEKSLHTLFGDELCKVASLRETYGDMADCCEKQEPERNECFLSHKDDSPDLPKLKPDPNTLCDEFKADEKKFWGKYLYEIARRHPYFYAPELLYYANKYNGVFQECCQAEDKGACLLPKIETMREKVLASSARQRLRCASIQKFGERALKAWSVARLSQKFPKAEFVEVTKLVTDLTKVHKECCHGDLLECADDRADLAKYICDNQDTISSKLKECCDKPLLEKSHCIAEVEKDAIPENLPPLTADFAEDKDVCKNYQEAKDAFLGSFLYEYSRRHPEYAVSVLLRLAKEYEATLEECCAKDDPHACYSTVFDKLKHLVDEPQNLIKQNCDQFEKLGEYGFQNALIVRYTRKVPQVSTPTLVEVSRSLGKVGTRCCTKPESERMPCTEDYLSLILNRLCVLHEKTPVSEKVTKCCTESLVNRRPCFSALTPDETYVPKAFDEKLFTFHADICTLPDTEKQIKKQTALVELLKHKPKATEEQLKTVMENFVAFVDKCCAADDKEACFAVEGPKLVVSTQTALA

On to `COc1cc(C(O)c2nc(-c3ccc4ccccc4c3)cs2)ccc1F` (stereo unspecified), for which the IC50 is 10.4 µM (inactive) in [1] and > 69.5 µM (inactive) in [2].

For the molecule `O=C(NNC(=S)NC(=O)c1cccc([N+](=O)[O-])c1)c1ccc(O)cc1`, the IC50 in assay [3] was > 94 µM (inactive).

`CC1=C(C(N)=O)S(=O)(=O)c2ccccc21`: the IC50 in assay [4] was 19.6 µM (active); in assay [5], 23 µM (inactive).

Take `CCCC(C(=O)Nc1ccc2c(C)cc(=O)oc2c1)c1ccccc1` (stereo unspecified): in assay [6], the IC50 is 1.23 µM (active).

With `COc1ccccc1NC(=O)c1c(Nc2ccccc2C)sc(C(=O)Nc2cccc(Cl)c2)c1N`, the IC50 in assay [7] is 80 µM (inactive); in assay [1], > 7.73 µM (active); in [10], 26 µM (active); in [2], > 69.5 µM (inactive); in [11], > 69.5 µM (inactive); in assay [12], > 69.5 µM (inactive). Besides, the concentration at half-maximal activity (AC50) – broadly, the concentration at which the activity in the assay is half-maximal – in assay [8] was 21.3 µM (active). For the same molecule, the “Absolute IC50 (CHOP)” value in assay [9] stood at 10 µM.

On to `COC(=O)C1=C(C)N(Cc2ccccc2)C(=S)N[C@H]1c1cccc(F)c1`, for which the IC50 in [13] is > 47.1 µM (inactive). Besides, in assay [14], the AC50 was > 52 µM (inactive). In addition, the EC50 in assay [15] was > 53 µM (inactive).

`CCc1ccc(CNCCc2c[nH]c3ccccc23)cc1`: the AC50 in assay [16] was 4.4 µM (active); in [17], 31.7 µM (active); in assay [18], 12.2 µM (active); in [19] it was 4.01 µM (active); in assay [21] it was 6.36 µM (active). Also, the half-maximal cytotoxic concentration (CC50) (commonly the concentration at which the toxic effect on the cells reaches its halfway point) in [20] was 100 µM (active).

With `COc1ccc(/C=N/N2C(=O)CSC2=S)cc1Br`, the IC50 in assay [4] was 19.3 µM (active); in assay [5], 9.69 µM (active).

Take `N#CC1=C(C2CC2)CC(c2ccccc2)C(C#N)=C1N` (stereo unspecified): the IC50 in [6] was > 10 µM (inactive).

For the origin of these results see ChEMBL document CHEMBL1201862, “PubChem BioAssay data set” (2004).
